Experimental data published in PubChem BioAssay AID1963848 (Molecular Pharmacology Branch, DTP, NCI, 2024).

Tested on: 379773-124-R-J2-PDC spheroid viability
Test: Anticancer human tumor 379773-124-R-J2-PDC patient-derived endometrial carcinoma cell line growth inhibition [POLQ]
Conditions: spheroids with HUVEC and MSC; for IC50: curve of first compound; for viability, T/C: stronger effect = lower value
Procedure, shortened: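 Three-cell-type spheroids modelling solid tumor plus stroma served as the readout system; POL inhibitors were tested individually and in combination, concentration ranges set by clinical Cmax where known.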
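Note: spheroids exposed to drugs for seven days before readout.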
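Throughout, for viability, T/C: percent viability relative to DMSO vehicle control taken as 100%.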

What does the source list for CC(=O)O[C@H]1C(=O)[C@@]2(C)[C@H]([C@H](OC(=O)c3ccccc3)[C@]3(O)C[C@H](OC(=O)[C@H](O)[C@@H](NC(=O)c4ccccc4)c4ccccc4)C(C)=C1C3(C)C)[C@]1(OC(C)=O)CO[C@@H]1C[C@@H]2O + Nc1ccc(C#CCN(C(=O)Cc2ncc(C(F)(F)F)cc2C(F)(F)F)c2ccc(F)cc2)nn1?
IC50 (second compound 0.0316 µM): < 9.49 nM; IC50 (second compound 0.1 µM): < 9.49 nM; IC50 (second compound 0.316 µM): < 9.49 nM; IC50 (second compound 1 µM): < 9.49 nM; IC50 (second compound 3.16 µM): < 9.49 nM; IC50 (second compound 10 µM): < 9.49 nM; viability, T/C (second compound 0.0316 µM, first compound 0.00949 µM): 22.9%; viability, T/C (second compound 0.0316 µM, first compound 0.03 µM): 8.34%; viability, T/C (second compound 0.0316 µM, first compound 0.0949 µM): 8.59%; viability, T/C (second compound 0.0316 µM, first compound 0.3 µM): 12%; viability, T/C (second compound 0.0316 µM, first compound 0.949 µM): 7.39%; viability, T/C (second compound 0.0316 µM, first compound 3 µM): 10.1%; viability, T/C (second compound 0.1 µM, first compound 0.00949 µM): 19%; viability, T/C (second compound 0.1 µM, first compound 0.03 µM): 11.5%; viability, T/C (second compound 0.1 µM, first compound 0.0949 µM): 8.46%; viability, T/C (second compound 0.1 µM, first compound 0.3 µM): 9.83%; viability, T/C (second compound 0.1 µM, first compound 0.949 µM): 9.69%; viability, T/C (second compound 0.1 µM, first compound 3 µM): 8.71%; viability, T/C (second compound 0.316 µM, first compound 0.00949 µM): 23.7%; viability, T/C (second compound 0.316 µM, first compound 0.03 µM): 9.89%; viability, T/C (second compound 0.316 µM, first compound 0.0949 µM): 10.2%; viability, T/C (second compound 0.316 µM, first compound 0.3 µM): 12.1%; viability, T/C (second compound 0.316 µM, first compound 0.949 µM): 10.1%; viability, T/C (second compound 0.316 µM, first compound 3 µM): 9.75%; viability, T/C (second compound 1 µM, first compound 0.00949 µM): 28.3%; viability, T/C (second compound 1 µM, first compound 0.03 µM): 10.3%; viability, T/C (second compound 1 µM, first compound 0.0949 µM): 10.1%; viability, T/C (second compound 1 µM, first compound 0.3 µM): 9.22%; viability, T/C (second compound 1 µM, first compound 0.949 µM): 10.3%; viability, T/C (second compound 1 µM, first compound 3 µM): 8.87%; viability, T/C (second compound 3.16 µM, first compound 0.00949 µM): 23.4%; viability, T/C (second compound 3.16 µM, first compound 0.03 µM): 9.86%; viability, T/C (second compound 3.16 µM, first compound 0.0949 µM): 9.86%; viability, T/C (second compound 3.16 µM, first compound 0.3 µM): 10.8%; viability, T/C (second compound 3.16 µM, first compound 0.949 µM): 11%; viability, T/C (second compound 3.16 µM, first compound 3 µM): 9.15%; viability, T/C (second compound 10 µM, first compound 0.00949 µM): 25.1%; viability, T/C (second compound 10 µM, first compound 0.03 µM): 10.9%; viability, T/C (second compound 10 µM, first compound 0.0949 µM): 9.07%; viability, T/C (second compound 10 µM, first compound 0.3 µM): 10.1%; viability, T/C (second compound 10 µM, first compound 0.949 µM): 8.38%; viability, T/C (second compound 10 µM, first compound 3 µM): 8.52%

How did the IC50 (second compound 0.0316 µM) turn out when CC[C@@]1(O)C(=O)OCc2c1cc1n(c2=O)Cc2cc3c(CN(C)C)c(O)ccc3nc2-1 + Nc1ccc(C#CCN(C(=O)Cc2ncc(C(F)(F)F)cc2C(F)(F)F)c2ccc(F)cc2)nn1 was run?
The IC50 was 29.5 nM.

And the IC50 (second compound 0.1 µM)?
The IC50 was 29 nM.

And the IC50 (second compound 0.316 µM)?
Its IC50 is 26 nM.

What about the IC50 (second compound 1 µM) of the same compound?
The IC50 was 26.4 nM.

What about the IC50 (second compound 3.16 µM) of the same compound?
Its IC50 is 24.5 nM.

What about the IC50 (second compound 10 µM) of the same compound?
The IC50 was 22.5 nM.

And the viability, T/C (second compound 0.0316 µM, first compound 0.000316 µM)?
Its viability, T/C is 96.7%.

And the viability, T/C (second compound 0.0316 µM, first compound 0.001 µM)?
The viability, T/C was 89%.

What about the viability, T/C (second compound 0.0316 µM, first compound 0.00316 µM) of the same compound?
Its viability, T/C is 80.7%.

What about the viability, T/C (second compound 0.0316 µM, first compound 0.01 µM) of the same compound?
Its viability, T/C is 96%.

What about the viability, T/C (second compound 0.0316 µM, first compound 0.0316 µM) of the same compound?
Its viability, T/C is 47.3%.

What about the viability, T/C (second compound 0.0316 µM, first compound 0.1 µM) of the same compound?
The viability, T/C was 22.3%.

What about the viability, T/C (second compound 0.1 µM, first compound 0.000316 µM) of the same compound?
The viability, T/C was 90.8%.

And the viability, T/C (second compound 0.1 µM, first compound 0.001 µM)?
The viability, T/C was 87.6%.

What about the viability, T/C (second compound 0.1 µM, first compound 0.00316 µM) of the same compound?
The viability, T/C was 91.4%.

What about the viability, T/C (second compound 0.1 µM, first compound 0.01 µM) of the same compound?
Its viability, T/C is 89.6%.

And the viability, T/C (second compound 0.1 µM, first compound 0.0316 µM)?
The viability, T/C was 46.7%.

And the viability, T/C (second compound 0.1 µM, first compound 0.1 µM)?
The viability, T/C was 19.8%.

And the viability, T/C (second compound 0.316 µM, first compound 0.000316 µM)?
Its viability, T/C is 93%.

And the viability, T/C (second compound 0.316 µM, first compound 0.001 µM)?
The viability, T/C was 96.3%.

What about the viability, T/C (second compound 0.316 µM, first compound 0.00316 µM) of the same compound?
The viability, T/C was 102%.

What about the viability, T/C (second compound 0.316 µM, first compound 0.01 µM) of the same compound?
Its viability, T/C is 86.2%.

And the viability, T/C (second compound 0.316 µM, first compound 0.0316 µM)?
The viability, T/C was 42.6%.

And the viability, T/C (second compound 0.316 µM, first compound 0.1 µM)?
The viability, T/C was 20.8%.

And the viability, T/C (second compound 1 µM, first compound 0.000316 µM)?
Its viability, T/C is 100%.

And the viability, T/C (second compound 1 µM, first compound 0.001 µM)?
Its viability, T/C is 92%.

What about the viability, T/C (second compound 1 µM, first compound 0.00316 µM) of the same compound?
The viability, T/C was 92.2%.

What about the viability, T/C (second compound 1 µM, first compound 0.01 µM) of the same compound?
The viability, T/C was 83.7%.

What about the viability, T/C (second compound 1 µM, first compound 0.0316 µM) of the same compound?
Its viability, T/C is 43.6%.

What about the viability, T/C (second compound 1 µM, first compound 0.1 µM) of the same compound?
The viability, T/C was 21.2%.

And the viability, T/C (second compound 3.16 µM, first compound 0.000316 µM)?
Its viability, T/C is 110%.

What about the viability, T/C (second compound 3.16 µM, first compound 0.001 µM) of the same compound?
Its viability, T/C is 90.5%.

And the viability, T/C (second compound 3.16 µM, first compound 0.00316 µM)?
The viability, T/C was 85.8%.

What about the viability, T/C (second compound 3.16 µM, first compound 0.01 µM) of the same compound?
The viability, T/C was 85.1%.

And the viability, T/C (second compound 3.16 µM, first compound 0.0316 µM)?
Its viability, T/C is 39.6%.

And the viability, T/C (second compound 3.16 µM, first compound 0.1 µM)?
The viability, T/C was 18.9%.

And the viability, T/C (second compound 10 µM, first compound 0.000316 µM)?
The viability, T/C was 94%.

What about the viability, T/C (second compound 10 µM, first compound 0.001 µM) of the same compound?
The viability, T/C was 79.9%.

And the viability, T/C (second compound 10 µM, first compound 0.00316 µM)?
The viability, T/C was 81.9%.

And the viability, T/C (second compound 10 µM, first compound 0.01 µM)?
Its viability, T/C is 83.3%.

What about the viability, T/C (second compound 10 µM, first compound 0.0316 µM) of the same compound?
The viability, T/C was 36%.

And the viability, T/C (second compound 10 µM, first compound 0.1 µM)?
Its viability, T/C is 21.8%.
